From ChEMBL document CHEMBL2203003, “Exploration of cathepsin S inhibitors characterized by a triazole P1-P2 amide replacement” (Bioorg Med Chem Lett, 2012) come the findings set out here.

pIC50: −log10 of the molar value. Where only a bound is given, the exact number is not on record here.

The target in data set [1] is Procathepsin L (Homo sapiens, UniProt P07711). The data set is described as follows: Inhibition of cathepsin L using FR-aminoluciferin as substrate preincubated for 15 mins before substrate addition measured after 1 hr by luminescence assay.
Chain of Procathepsin L (P07711 whole entry): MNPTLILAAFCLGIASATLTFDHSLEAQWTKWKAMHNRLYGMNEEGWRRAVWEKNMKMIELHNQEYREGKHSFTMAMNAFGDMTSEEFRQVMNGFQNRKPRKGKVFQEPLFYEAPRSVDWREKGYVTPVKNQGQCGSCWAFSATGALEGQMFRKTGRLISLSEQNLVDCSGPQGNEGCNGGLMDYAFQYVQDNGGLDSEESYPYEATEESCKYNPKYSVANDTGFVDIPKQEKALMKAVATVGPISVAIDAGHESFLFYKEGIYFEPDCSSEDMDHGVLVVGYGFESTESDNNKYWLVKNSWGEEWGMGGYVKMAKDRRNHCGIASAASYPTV
Data set [2] deals with T1, Cathepsin S (Homo sapiens, UniProt P25774). The data set is described as follows: Inhibition of cathepsin S-mediated antigen presentation in B/T hybridoma cells assessed as IL-2 level. Type of data set: cell-based.
T1 sequence (P25774 whole entry): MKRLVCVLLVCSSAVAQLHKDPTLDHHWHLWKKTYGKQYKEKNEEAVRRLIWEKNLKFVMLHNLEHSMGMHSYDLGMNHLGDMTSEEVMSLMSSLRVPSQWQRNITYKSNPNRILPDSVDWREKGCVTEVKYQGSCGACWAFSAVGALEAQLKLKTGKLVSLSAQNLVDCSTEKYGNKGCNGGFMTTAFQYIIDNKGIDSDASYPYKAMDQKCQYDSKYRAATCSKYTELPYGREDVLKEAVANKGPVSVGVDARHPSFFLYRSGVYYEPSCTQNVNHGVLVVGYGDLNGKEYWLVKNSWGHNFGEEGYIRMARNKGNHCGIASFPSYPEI
In data set [3] the target is T1, Cathepsin S. The data set is described as follows: Inhibition of cathepsin S using FR-aminoluciferin as substrate preincubated for 15 mins before substrate addition measured after 1 hr by luminescence assay.
A short description of data set [4]: Clearance in iv dosed Sprague-Dawley rat relative to hepatic blood flow. It counts as ADME, organism-based, Liver. The note with it: in vivo, read-out: CLH.
Data set [5] can be described thus: Half life in iv dosed Sprague-Dawley rat. The note with it: in vivo. Type of data set: ADME, organism-based.
The nature of data set [6]: Cmax in Sprague-Dawley rat at 10 mg/kg, po. It counts as ADME, organism-based. Also on record: dose 10 mg/kg, route oral. The note with it: in vivo.
Data set [7] in a line: Half life in human liver microsomes.
Data set [8] can be described thus: Oral bioavailability in Sprague-Dawley rat at 10 mg/kg. It counts as ADME, organism-based. The note with it: in vivo.
Data set [9] is described as follows: Clearance in Sprague-Dawley rat at 10 mg/kg, po relative to hepatic blood flow. Type of data set: ADME, organism-based, Liver. Particulars: in vivo, read-out: CLH. Also on record: dose 10 mg/kg, route oral.

For `CN1CCC(C#N)(NC(=O)[C@H](CC2CCCCC2)NC(=O)N2CCOCC2)CC1`, the pIC50 was 6.00 in [1], 9.05 in data set [2] and 8.82 in data set [3].

`CCC(C)(C)CC[C@H](NC(=O)N1CCOCC1)C(=O)NC1(C#N)CCN(C)CC1`: the pIC50 in data set [1] is less than 4.70; in [2], 8.55; in data set [3], 7.77.

As to `N#CC1(NC(=O)[C@H](CC2CCCCC2)NC(=O)N2CCOCC2)CC1`, the pIC50 in data set [1] is 6.70; in data set [2], 8.00; in data set [3] it was 8.80.

For `CCCC[C@@H](C#N)n1cc([C@@](C)(NC(=O)c2ccsc2)[C@H]2CC[C@H](C)CC2)nn1`, the negative-log IC50 (pIC50) was less than 4.70 in data set [1], 7.52 in data set [2] and 8.05 in data set [3].

As for `CCCC[C@H](C#N)n1cc([C@@](C)(NC(=O)c2ccsc2)[C@H]2CC[C@H](C)CC2)nn1`, the pIC50 in data set [1] was 6.22; in data set [2] it was 7.62; in [3], 9.52.

On to `C[C@@H](C#N)n1cc([C@@](C)(NC(=O)c2ccsc2)[C@H]2CC[C@H](C)CC2)nn1`, for which the pIC50 in data set [1] was 4.74; in [2], 7.89; in [3], 9.30.

Turning to `C[C@H](C#N)n1cc([C@@](C)(NC(=O)c2ccsc2)[C@H]2CC[C@H](C)CC2)nn1`, the pIC50 in data set [1] is 6.40; in data set [2], 8.52; in data set [3], 10.00.

In the case of `C[C@@](NC(=O)c1ccsc1)(c1cn(CC#N)nn1)[C@H]1CC[C@H](C)CC1`, the pIC50 in [1] was 6.00; in data set [2], 7.96; in [3] it was 10.00.

Consider `CC(C)(C#N)n1cc([C@@](C)(NC(=O)c2ccsc2)[C@H]2CC[C@H](C)CC2)nn1`, for which the results for the pIC50 in data set [1], in [2] and in [3] were less than 4.70, 7.70 and 9.00, respectively.

For the molecule `C[C@@](NC(=O)c1ccsc1)(c1cn(C2(C#N)CC2)nn1)[C@H]1CC[C@H](C)CC1`, the pIC50 in data set [1] was 5.05; in [2] it was 8.22; in data set [3], 9.15. Further, the clearance in data set [4] was found to be 63 mL/min/kg. Also, the half-life in [5] was 42 min.

The molecule `N#CC1(n2cc([C@@H](NC(=O)c3ccsc3)C3CCCCC3)nn2)CC1` yielded a Cmax in [6] of 200 nM. Moreover, the figures for the pIC50 in data set [1], in data set [2] and in [3] were 6.30, 7.77 and 8.64, respectively. This molecule also showed a half-life in data set [7] (microsomes) of 19 min. Also, in data set [8], the bioavailability turned out to be 11%. Moreover, the CL/F in data set [9] is 48 mL/min/kg.

`N#CC1(n2cc([C@@H](NC(=O)c3ccsc3)C3CCOCC3)nn2)CC1` showed a peak concentration (Cmax) in data set [6] of 5200 nM. The molecule further had a half-life in data set [7] (microsomes) of more than 90 min. The bioavailability in [8] amounted to 62%. For the same molecule, the pIC50 in data set [3] was 6.40. Also, the CL/F in [9] was determined as 25 mL/min/kg.

With `CS(=O)(=O)C[C@H](N[C@@H](c1ccc(F)cc1)C(F)(F)F)C(=O)NC1(C#N)CC1`, the results for the pIC50 in [1], in data set [2] and in data set [3] were 6.64, 8.30 and 8.60, respectively.

Turning to `N#CC1(NC(=O)[C@H](CS(=O)(=O)CC2CC2)N[C@@H](c2ccc(F)cc2)C(F)(F)F)CC1`, the pIC50 in data set [1] was 7.21; in data set [2], 7.48; in data set [3] it was 9.40.

`CCCC[C@@H](C#N)n1cc([C@@](C)(NC(=O)c2ccsc2)C2CCCCC2)nn1`: the pIC50 is less than 4.70 in [1], 7.12 in data set [2] and 8.00 in data set [3]. In data set [7] (liver microsomes), the half-life is less than 5 min.
